Results on five compounds are retold here after ChEMBL document CHEMBL1131998, “Synthesis and biological evaluation of 1,1-difluoro-2-(tetrahydro-3-furanyl)ethylphosphonic acids possessing a N9-purinylmethyl functional group at the ring. a new class of inhibitors for purine nucleoside phosphorylases” (Bioorg Med Chem Lett, 1999).

The target of experiment [1] is T1, Purine nucleoside phosphorylase (Homo sapiens, UniProt P00491).
T1 sequence (P00491 whole entry): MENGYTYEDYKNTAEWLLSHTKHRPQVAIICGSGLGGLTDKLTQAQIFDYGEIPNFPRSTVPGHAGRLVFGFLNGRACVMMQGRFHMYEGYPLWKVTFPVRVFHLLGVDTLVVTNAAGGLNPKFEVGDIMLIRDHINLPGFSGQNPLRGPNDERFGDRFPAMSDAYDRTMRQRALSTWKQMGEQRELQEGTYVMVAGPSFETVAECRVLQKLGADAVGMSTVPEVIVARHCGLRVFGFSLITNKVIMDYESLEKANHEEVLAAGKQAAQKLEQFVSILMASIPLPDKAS
Nature of the experiment: (§1) Compound was evaluated for inhibition of PNP-catalyzed inosine phosphorylation in human erythrocyte. In kind it is functional.

The target of experiment [2] is T1, Purine nucleoside phosphorylase. The experiment is described as §1.

`Nc1nc2c(ncn2CCCCC(F)(F)P(=O)(O)O)c(=O)[nH]1`: the IC50 – broadly, the concentration that inhibits the measured activity by half – in experiment [1] was 380 nM. The Ki (usually a measure of affinity in units of concentration, obtained from inhibition or displacement) in experiment [2] worked out at 53 nM.

`O=c1[nH]cnc2c1ncn2CC[C@@H]1C[C@H]1C(F)(F)P(=O)(O)O` had a concentration for half-maximal inhibition (IC50) in experiment [1] of 340 nM. Moreover, the Ki in experiment [2] worked out at 8.8 nM.

In experiment [1], `O=P(O)(O)C(F)(F)C[C@H]1COC[C@H]1Cn1cnc2c(O)ncnc21` gave an IC50 of 88 nM. Besides, the Ki in experiment [2] turned out to be 15.2 nM.

Turning to `O=P(O)(O)C(F)(F)C[C@H]1COC[C@@H]1Cn1cnc2c(O)ncnc21`, the midpoint of inhibition in experiment [1], the IC50, lay at 320 nM.

For the compound `Nc1nc2c(ncn2CC[C@@H]2C[C@H]2C(F)(F)P(=O)(O)O)c(=O)[nH]1` (racemic), the IC50 in experiment [1] was determined as 330 nM. Further, the Ki in experiment [2] was found to be 28.2 nM.
